PMC10480161, “Identification of potent and selective N-myristoyltransferase inhibitors of Plasmodium vivax liver stage hypnozoites and schizonts” (Nature Communications, 2023)
Where “and” joins values, the source holds several entries; their conditions need not be identical. Equal entries are not always repeated.

Key:
P. vivax hypnozoites = test: P. vivax liver stage assay, hypnozoites; type: cell-based, Plasmodium vivax; settings: for Hypnozoites per well: Isolate 2, replicate wells (Figure 6d); for Number of liverstage hypnozoites per well: 20 µM, 8 dpi
In short: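 Hypnozoite read-out by confocal imaging of PvUIS4/DAPI-stained cultures at day 8 post-infection. Compound was replaced daily starting day 5 in P. vivax-infected single-donor primary human hepatocytes. Positive control: Pi4K inhibitor MMV390048, 20 µM.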

HepG2 cells = test: HepG2 cytotoxicity assay (Live/Dead staining); settings: for Percentage of live HepG2 cells compared with diluent controls: replicates
In short: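 Live/dead fluorescence microscopy (calcein-AM and ethidium homodimer, 1 µM each) read at 72 h post-treatment. Compounds dosed at 1 to 20 µM on HepG2 cells, with washing and fresh compound every 24 h.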

PvNMT = PvNMT (Plasmodium vivax, UniProt A5K1A2); test: NMT activity assay (CPM detection of free CoA), PvNMT
PvNMT, sequence (A5K1A2 entry or part of it): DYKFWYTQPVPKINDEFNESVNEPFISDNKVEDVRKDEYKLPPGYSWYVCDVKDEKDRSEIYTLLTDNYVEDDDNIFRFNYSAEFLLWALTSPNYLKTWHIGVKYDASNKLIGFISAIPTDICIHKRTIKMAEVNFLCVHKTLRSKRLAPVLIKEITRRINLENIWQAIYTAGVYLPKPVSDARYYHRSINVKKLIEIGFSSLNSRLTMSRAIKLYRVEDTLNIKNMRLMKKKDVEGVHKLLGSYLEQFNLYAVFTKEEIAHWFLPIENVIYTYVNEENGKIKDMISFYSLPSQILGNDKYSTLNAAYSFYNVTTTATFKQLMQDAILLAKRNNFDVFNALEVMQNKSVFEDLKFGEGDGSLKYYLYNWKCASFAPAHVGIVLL

P. vivax schizonts = test: P. vivax liver stage assay, schizonts; type: cell-based, Plasmodium vivax; settings: for Number of liverstage Schizonts per well: 20 µM, 8 dpi
In short: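 Compound exposure ran days 5–8 post-infection with daily refeeding, dose-response up to 20 µM, MMV390048 at 20 µM as positive control. Host cells were single-lot primary human hepatocytes infected with freshly dissected P. vivax sporozoites; fixed cultures stained with anti-PvUIS4 and DAPI, schizonts quantified by confocal microscopy.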

HsNMT1 = molecular target: T1, HsNMT1 (Homo sapiens, UniProt P30419); test: NMT activity assay (CPM detection of free CoA), HsNMT; settings: read-out: HsNMT IC50; mean of two or more determinations
T1 sequence (P30419 1-496): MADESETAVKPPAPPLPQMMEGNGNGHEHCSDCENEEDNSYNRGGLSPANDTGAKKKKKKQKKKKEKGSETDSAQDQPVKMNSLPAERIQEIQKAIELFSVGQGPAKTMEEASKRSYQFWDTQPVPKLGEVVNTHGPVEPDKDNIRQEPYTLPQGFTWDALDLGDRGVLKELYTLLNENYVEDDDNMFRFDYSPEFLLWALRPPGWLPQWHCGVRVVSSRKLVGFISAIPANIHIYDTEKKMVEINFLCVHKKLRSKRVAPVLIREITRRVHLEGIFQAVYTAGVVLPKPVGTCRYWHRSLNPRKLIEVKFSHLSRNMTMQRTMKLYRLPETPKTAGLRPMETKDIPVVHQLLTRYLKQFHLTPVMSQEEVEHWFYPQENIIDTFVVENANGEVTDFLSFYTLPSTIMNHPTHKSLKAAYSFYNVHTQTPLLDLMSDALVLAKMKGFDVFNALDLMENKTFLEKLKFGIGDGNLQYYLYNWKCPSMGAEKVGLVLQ

## Cc1nn(C)c(C)c1CCOc1ccc2ccccc2c1-c1ccnc(N2CCNCC2)c1 [Compound 30a]
P. vivax hypnozoites; 1.25 uM
  Hypnozoites per well: 6 and 9 and 13
P. vivax hypnozoites; 2.5 uM
  Hypnozoites per well: 5 and 0 and 3
P. vivax hypnozoites; 5 uM
  Hypnozoites per well: 2 (2×) and 0
P. vivax hypnozoites; 10 uM
  Hypnozoites per well: 1 and 0 and 2
P. vivax hypnozoites; isolate 1, technical replicates (Fig. 6C)
  Number of liverstage hypnozoites per well: 0 per well
P. vivax hypnozoites; isolate 2, technical replicates (Fig. 6C)
  Number of liverstage hypnozoites per well: 0 per well
P. vivax hypnozoites; isolate 3, technical replicates (Fig. 6C)
  Number of liverstage hypnozoites per well: 0 per well
P. vivax hypnozoites; 20 uM
  Hypnozoites per well: 0
P. vivax hypnozoites; isolate 1, 20 µM
  hypnozoites (fold change to DMSO) mean diff: 0.954
P. vivax hypnozoites; isolate 2, 20 µM
  hypnozoites (fold change to DMSO) mean diff: 1.000
P. vivax hypnozoites; primary human hepatocytes, treatment day 5 to 8 post-infection, isolate 2
  IC50: 2100 nM
HepG2 cells
  IC50: > 20000 nM
HepG2 cells; 1 μM
  Percentage of live HepG2 cells compared with diluent controls: 103.422% and 100.304%
HepG2 cells; 2.5 μM
  Percentage of live HepG2 cells compared with diluent controls: 101.733% and 94.8731%
HepG2 cells; 5 μM
  Percentage of live HepG2 cells compared with diluent controls: 94.7431% and 110.101%
HepG2 cells; 10 μM
  Percentage of live HepG2 cells compared with diluent controls: 109.841% and 95.0809%
HepG2 cells; 20 μM
  Percentage of live HepG2 cells compared with diluent controls: 87.0514% and 94.4833%
PvNMT; enzyme selectivity, HsNMT IC50/PvNMT IC50
  SI: 269.8
PvNMT; read-out: PvNMT IC50, mean of two or more determinations
  IC50: 89 nM
P. vivax schizonts; isolate 1, technical replicates (Fig. 5b)
  Number of liverstage Schizonts per well: 0 per well
P. vivax schizonts; isolate 2, technical replicates (Fig. 5b)
  Number of liverstage Schizonts per well: 2 per well (2×) and 0 per well
P. vivax schizonts; isolate 3, technical replicates (Fig. 5b)
  Number of liverstage Schizonts per well: 4 per well and 0 per well
P. vivax schizonts; Isolate 2, 1.25 uM
  Schizonts per well: 10 per well and 11 per well and 19 per well
P. vivax schizonts; Isolate 2, 2.5 uM
  Schizonts per well: 11 per well and 12 per well and 16 per well
P. vivax schizonts; Isolate 2, 5 uM
  Schizonts per well: 6 per well and 8 per well and 11 per well
P. vivax schizonts; Isolate 2, 10 uM
  Schizonts per well: 4 per well and 7 per well and 8 per well
P. vivax schizonts; Isolate 3, 1.25 uM
  Schizonts per well: 13 per well and 11 per well
P. vivax schizonts; Isolate 3, 2.5 uM
  Schizonts per well: 7 per well and 6 per well
P. vivax schizonts; Isolate 3, 5 uM
  Schizonts per well: 8 per well and 4 per well
P. vivax schizonts; Isolate 3, 10 uM
  Schizonts per well: 5 per well and 7 per well
P. vivax schizonts; isolate 1, 20 µM
  schizonts (fold change to DMSO) mean diff: 1.000
P. vivax schizonts; isolate 2, 20 µM
  schizonts (fold change to DMSO) mean diff: 0.9245
P. vivax schizonts; isolate 3, 20 µM
  schizonts (fold change to DMSO) mean diff: 0.8636
P. vivax schizonts; primary human hepatocytes, treatment day 5 to 8 post-infection, isolates 2 and 3
  IC50: 2900 to 4300 nM
HsNMT1
  IC50: 24000 nM
